Experiments:
[1] = Cytotoxicity against human DU145 cells assessed as cell growth inhibition after 72 hrs by Alamar blue assay; format: functional, cell-based; details: DU-145, 72 h
[2] = target: Serine/threonine-protein kinase pim-1 (Homo sapiens, UniProt P11309); test: Inhibition of recombinant human Pim1
Serine/threonine-protein kinase pim-1, sequence (P11309 whole entry): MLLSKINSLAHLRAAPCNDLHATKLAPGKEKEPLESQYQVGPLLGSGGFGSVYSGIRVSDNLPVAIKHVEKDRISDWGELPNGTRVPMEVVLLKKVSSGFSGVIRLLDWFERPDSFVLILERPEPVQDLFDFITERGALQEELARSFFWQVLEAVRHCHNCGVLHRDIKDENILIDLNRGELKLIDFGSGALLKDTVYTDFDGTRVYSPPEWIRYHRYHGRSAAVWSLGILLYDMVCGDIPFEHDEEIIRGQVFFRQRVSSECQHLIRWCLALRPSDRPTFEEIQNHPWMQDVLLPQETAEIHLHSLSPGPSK

Row | Compound | IC50 [1] [µM] | IC50 [2] [µM]
1 | CC(C)(C)OC1CC(O)CC2C(=O)c3c(O)ccc(O)c3C(=O)C12 (stereo unspecified) | 3.21 | 3.5
2 | CC(=O)Oc1ccc(O)c2c1C(=O)C=CC2=O | – | 3
3 | Oc1ccc(O)c2c(O)c3c(O)ccc(O)c3c(O)c12 | – | 57.1
4 | O=C1C(CO)=C(CO)C(=O)c2c(O)ccc(O)c21 | – | 7.4
5 | Cc1cc(O)c2c(c1)C(=O)c1cc(O)cc(O)c1C2=O [EMODIN] | 2.02 | 2.5
6 | CC(C)(C)OC1CC(=O)CC2C(=O)c3cccc(O)c3C(=O)C12 (stereo unspecified) | – | 23.8
7 | COc1cccc2c1C(=O)c1c(O)ccc(O)c1C2=O | – | 11.6
8 | CC(C)C(C)OC1CC(=O)CC2C(=O)c3c(O)ccc(O)c3C(=O)C12 (stereo unspecified) | 4.06 | 3.6
9 | Cc1cc(O)c2c(c1)C(=O)C=CC2=O [RAMENTACEONE] | – | 28
10 | O=Cc1cc(O)c2c(c1O)C(=O)C=CC2=O | – | 28
11 | COc1c(O)c(O)c2c(c1O)C(=O)c1cc(C)cc(O)c1C2=O | 3.93 | 21.4
12 | O=C1C=C(CBr)C(=O)c2c(O)ccc(O)c21 | – | 27

Reference: ChEMBL document CHEMBL3808372, “Identification of quinones as novel PIM1 kinase inhibitors” (Bioorg Med Chem Lett, 2016)
